The results in this text go back to paper PMC9254721, “Global update on the susceptibilities of human influenza viruses to neuraminidase inhibitors and the cap-dependent endonuclease inhibitor baloxavir, 2018–2020” (Antiviral research, 2022).

The subject of test [1] is B/Yamagata-lineage virus neuraminidase (NA). The format is biochemical, influenza B/Yamagata-lineage virus.
The subject of test [2] is influenza viruses. The format is cell-based, influenza virus.
In test [3] the test system is A(H1N2)v viruses. Format: cell-based.

Turning to `CC(=O)N[C@H]1[C@H]([C@H](O)[C@H](O)CO)OC(C(=O)O)=C[C@@H]1N=C(N)N` [Zanamivir, zanamivir], the “inhibition phenotype (NI/RI/HRI)” value in test [1] is on record as “RI (key: normal inhibition (NI) is a <5-fold increase in the NAI IC50; RI is a 5- to 50-fold increase; HRI is a >50-fold increase)”.

`COC(=O)OCOc1c2n(ccc1=O)N([C@@H]1c3ccccc3SCc3c1ccc(F)c3F)[C@@H]1COCCN1C2=O` [baloxavir, baloxavir marboxil]: the “fold increase compared to the respective median EC50” value in test [2] is reported as under 3 fold. Besides, in test [3], the baloxavir susceptibility result is given as “susceptible”.
